Measurements reported in BindingDB's records for doi:10.1021/acsmedchemlett.9b00286 (Bristol Myers Squibb, 2019).
pEC50: −log10 of the molar value.

Assay: Inhibition of NS5A in HCV genotype 1b assessed as decrease in viral replication

pEC50: 11.40
SMILES: COC(=O)N[C@H](C(=O)N1CCC[C@H]1c1nc(-c2ccc(-c3ccc(-c4c[nH]c([C@@H]5CCCN5C(=O)[C@@H](NC(=O)OC)C(C)C)n4)cc3)cc2)c[nH]1)C(C)C [BMS-790052]
